From US20220289756A1, “COMPOUNDS AND COMPOSITIONS AS INHIBITORS OF PROTEIN KINASES” (priority 2021, published 2022) come the findings set out here.

One test has as its target T1, ABL (WT) (Homo sapiens, UniProt P00519).
T1 construct: purchased BPS Biosciences (named as the lab that ran the assay)
The experiment in a line: Abl kinase activity assay, Kinase-Glo Plus luminescence (BPS Biosciences). The class given is biochemical. To be noted: 10 μM ATP. As for the experimental part: (§1) Assay was conducted by BPS Biosciences, 6405 Mira Mesa Blvd. Suite 100. San Diego, Calif. 92121. United States
(§2) • The assay was performed using Kinase-Glo Plus luminescence kinase assay kit (Promega). It measures kinase activity by quantitating the amount of ATP remaining in solution following a kinase reaction. The luminescent signal from the assay is correlated with the amount of ATP present and is inversely correlated with the amount of kinase activity. • The testing compounds were diluted in 10% DMSO and 5 μl of the dilution was added to a 50 μl reaction so that the final concentration of DMSO is 1% in all of reactions. All of the enzymatic reactions were conducted at 30° C. for 45 minutes. The 50 μl reaction mixture contains 40 mM Tris, pH 7.4, 10 mM MgCl2, 0.1 mg/ml BSA, 1 mM DTT, 10 μM ATP, Kinase substrate and the enzyme. After the enzymatic reaction, 50 μl of Kinase-Glo Plus Luminescence kinase assay solution (Promega) was added to each reaction and incubated on the plate for 15 minutes, at room temperature. Luminescence signal was measured using a BioTek Synergy 2 microplate reader.
(§3) • Kinase activity assays were performed in duplicate at each concentration. The luminescence data were analyzed using the computer software, Graphpad Prism. The difference between luminescence intensities in the absence of Kinase (Lut) and in the presence of Kinase (Luc) was defined as 100% activity (Lut−Luc). Using luminescence signal (Lu) in the presence of the compound, % activity was calculated as: • % activity={(Lut−Lu)/(Lut−Luc)}×100%, where Lu=the luminescence intensity in the presence of the compound. The values of % activity versus a series of compound concentrations were then plotted using non-linear regression analysis of Sigmoidal dose-response curve generated with the equation Y=B+(T−B)/1+10 ((LogEC50−X)×Hill Slope), where Y=percent activity, B=minimum percent activity, T=maximum percent activity, X=logarithm of compound and Hill Slope=slope factor or Hill coefficient. The IC 50 value was determined by the concentration causing a half-maximal percent activity.
In general terms: Kinase-Glo measures the ATP left after a reaction by luminescence.

A further test has as its target T2, Abl(T315I) (Homo sapiens, UniProt P00519, T315I).
T2 construct: purchased BPS Biosciences (named as the lab that ran the assay)
In words: Abl(T315I) kinase activity assay, Kinase-Glo Plus luminescence (BPS Biosciences). The class given is biochemical. Conditions: 10 μM ATP. As for the experimental part:
as §1, §2, §3

[1] abbreviates: 10 nM compound, read-out: % Inhibition of Compound 55 @10 nM.
The mark [2] stands for this setting: 100 nM compound, read-out: % Inhibition of Compound 55 @100 nM.

Broadly, the inhibition is the share of the control response that was lost under treatment. In the case of `Cc1ccc(C(=O)Nc2ccc(CN3CCN(C)CC3)c(C(F)(F)F)c2)cc1C12CC(c3cnc4cccnn34)(C1)C2` [Compound 55, 3-(3-(imidazo[1,2-b]pyridazin-3-yl)bicyclo[1.1.1]pentan-1-yl)-4-methyl-N-(4-((4-methylpiperazin-1-yl)methyl)-3-(trifluoromethyl)phenyl)benzamide], the inhibition at 0.01 µM at ABL (WT) (setting [1]) and on Abl(T315I) (setting [1]) was over 10% each time. Besides, the inhibition at 0.1 µM on ABL (WT) (setting [2]) and on Abl(T315I) (setting [2]) was over 25% throughout. Also, the IC50 on ABL (WT) (read-out: IC-50 of Compound 55) and at Abl(T315I) (read-out: IC-50 of Compound 55) was under 500 nM each time.
